Results from US8278288B2, “Organosiloxanes containing ester derivatives of ascorbic acid” (Dow Corning Corporation, priority 2007, dated 2012).
Where two headings read alike, the source gives them in different places. Marks after values point to notes of the source that are not given here.

Tests used:
[1] = system: Melanoderm tissue model MEL 300 A; experiment: Skin whitening effect: melanin concentration in MelanoDerm tissue model; assay type: cell-based, human
Experimental: This example illustrates cell viability properties and efficacy of skin lightening formulations according to the present invention. In particular, two formulations according to the present invention (containing AUTS as prepared according to Example 4), water (a negative control), 1% kojic acid (Sigma, Wis.) in water (positive control), and ascorbyl tetraisopalmitate in D5 (decamethylcyclopentasiloxane) were assayed and compared for cell viability and skin lightening efficacy (see Table 1) MELANODERM™ cell viability was tested by MTT assay after exposure to test and reference preparations. The assays were carried out using Melanoderm tissue model MEL 300 A cell line (MELANODERM tissue model available from MatTek, Ashland, Mass.), This melanoderm model consists of normal, human-derived epidermal keratinocytes and melanocytes that have been co-cultured to form a multilayer, highly differentiated model of human epidermis. […] (Cell viability with both materials in D5 at 10 and 25 μL dose was >90%). Skin whitening effect was evaluated by measuring melanin concentration (μg/ml) after six applications of each preparation.

[2] = Solubility in various personal care solvents
Experimental: A 36 wt % mixture of the referenced sample and listed solvents were prepared in a glass vial. The sealed glass vials containing the mixtures were then placed in a 60° C. water bath and periodically shaken and observed.

[3] = 10 μl dose, six applications, in D5 (AUTS 3.2 wt %, VC-IP 6.4%)
[4] = 25 μl dose, six applications, in D5 (AUTS 3.2 wt %, VC-IP 6.4%)
[5] = 36 wt % mixture, 60° C. water bath, ** = nearly clear to hazy solution, gels when cooled to room temperature

Molecule	Melanin concentration at Day 10, Average [1, 3]	Melanin concentration at Day 10, Average [1, 4]	Solubility in A = C12-15 Alkyl Benzoate (FINSOLV TN) [2]	Solubility in B = Cyclopentasiloxane (Dow/Corning 245 Fluid) [2]	Solubility in C = Squalane (Uniqema PRIPURE 3759) [2]	Solubility in D = Tricaprylin (TRIVENT OC-G) [2]	Solubility in Water [2]	further results
C[Si](C)(C)O[Si](C)(CCCCCCCCCCC(=O)OCC(O)C1OC(=O)C(O)=C1O)O[Si](C)(C)C (centres unmarked) [AUTS, Ascorbyl Undecyl Trisiloxane]	37.4* μg/ml	26.6** μg/ml	–	–	–	–	–	Solubility in Water ([2]; 36 wt % mixture, 60° C. water bath, * = translucent mixture that thickens to a viscous hazy liquid when cooled): No; Solubility in A = C12-15 Alkyl Benzoate (FINSOLV TN) [2, 5]: Yes**; Solubility in B = Cyclopentasiloxane (Dow/Corning 245 Fluid) [2, 5]: Yes**; Solubility in C = Squalane (Uniqema PRIPURE 3759) [2, 5]: Yes**; Solubility in E = Caprylic/Capric Triglyceride [2, 5]: Yes**
O=c1cc(CO)occ1O [Kojic Acid, kojic acid]	–	–	–	–	–	–	–	Melanin concentration at Day 10, Average ([1]; 25 μL dose, 1 wt % in water, six applications (positive control)): 41.9 µg/mL
CCCCCCCCC(CCCCCC)C(=O)OC[C@H](OC(=O)C(CCCCCC)CCCCCCCC)[C@H]1OC(=O)C(OC(=O)C(CCCCCC)CCCCCCCC)=C1OC(=O)C(CCCCCC)CCCCCCCC (some centres unmarked) [VC-IP, ascorbyl tetraisopalmitate]	57.8* μg/ml	55.2** μg/ml	–	–	–	–	–	–
Bis-Ascorbyl Undecyl Polydimethylsiloxane [Comparative sample #2]	–	–	Yes	No	No	Yes	No	–
Bis-Ascorbyl Undecyl Tetramethyldisiloxane [Comparative sample #1]	–	–	No	No	No	No	Yes*	–
